From the supplement of paper PMC11208160
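Further: IS621 recombinase and bridge RNA in Escherichia coli cells.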

Test: recombinant barcode read abundance after kanamycin selection (control-corrected) (log10(CPM+1)); higher = more efficient recombination; sequences stand for … in AGTGCAGAGAAAATCGGCCAGTTTTCTCTGCCTGCAGTCCGCATGCCGT…AGATTTATGCAGCGGACTGCCTTTCTCCCAAAGTGATAAACCGGACAGTATCATGGACCGGTTTTCCCGGTAATCCGTATTTGCAAGGTTGGTTTCACT; site = the 11-nt target
Procedure, shortened: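 Duplicate cultures were plated either on chloramphenicol/ampicillin LB agar, serving as control, or on chloramphenicol/ampicillin/kanamycin with 0.1 mM IPTG. These came from a pooled E. coli library co-electroporated with a donor plasmid, each member pairing a target with an IS621 bridge RNA target-binding loop. Recombination efficiency equals averaged, control-corrected counts per million of recombinant-junction barcodes. It is listed as log10(CPM+1).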
With “TCCCATCCTTGGGTTCTAACCTGTTGCTT (site TCCCATCCTAA)” the “recombinant barcode read abundance (log10)” value was 0.114.
With “TCCCATGCTTGGGTTCTAACCTGTTGCCT (site TCCCATACTAG)” the “recombinant barcode read abundance (log10)” value was 0.19.
With “TCCCATGCTTGGGTTCTAACCTGTTGCCT (site TCCCATCCTAG)” the “recombinant barcode read abundance (log10)” value was 0.151.
In the case of “TCCCATGCTTGGGTTCTAACCTGTTGCCT (site TCCCATGCTAG)”, the “recombinant barcode read abundance (log10)” value is reported as 1.17.
For “TCCCATGCTTGGGTTCTAACCTGTTGCCT (site TCCCATTCTAG)”, the “recombinant barcode read abundance (log10)” value was 0.0569.
In the case of “TCCCCGACTTGGGTTCTAACCTGTTGCCG (site TCCCCGACTCG)”, the “recombinant barcode read abundance (log10)” value is reported as 1.03.
With “TCCCCGACTTGGGTTCTAACCTGTTGCCG (site TCGCCTACTCG)” the “recombinant barcode read abundance (log10)” value was 0.03.
For “TCCCCGGCTTGGGTTCTAACCTGTTGCGG (site CAAAACTCTAA)”, the “recombinant barcode read abundance (log10)” value was 0.262.
For “TCCCCGGCTTGGGTTCTAACCTGTTGCGG (site TCCCCGGCTCC)”, the “recombinant barcode read abundance (log10)” value was 1.48.
For “TCCCGATCTTGGGTTCTAACCTGTTGCCT (site TCCCGAACTAG)”, the “recombinant barcode read abundance (log10)” value was 0.0997.
In the case of “TCCCGATCTTGGGTTCTAACCTGTTGCCT (site TCCCGACCTAG)”, the “recombinant barcode read abundance (log10)” value is reported as 0.521.
In the case of “TCCCGATCTTGGGTTCTAACCTGTTGCCT (site TCCCGAGCTAG)”, the “recombinant barcode read abundance (log10)” value is reported as 0.065.
In the case of “TCCCGATCTTGGGTTCTAACCTGTTGCCT (site TCCCGATCTAG)”, the “recombinant barcode read abundance (log10)” value is reported as 0.502.
With “TCCCTTCCTTGGGTTCTAACCTGTTGCCT (site TCCCGTCCTAG)” the “recombinant barcode read abundance (log10)” value was 0.0443.
For “TCCCTTCCTTGGGTTCTAACCTGTTGCCT (site TCCCTTCCTAG)”, the “recombinant barcode read abundance (log10)” value was 0.365.
In the case of “TCCGAAGCTTGGGTTCTAACCTGTTGCCT (site GACGAAGCTAG)”, the “recombinant barcode read abundance (log10)” value is reported as 0.444.
For “TCCGAAGCTTGGGTTCTAACCTGTTGCCT (site TCCGAAGCTAG)”, the “recombinant barcode read abundance (log10)” value was 0.487.
In the case of “TCCGACTCTTGGGTTCTAACCTGTTGCCG (site TCCGACTCTCG)”, the “recombinant barcode read abundance (log10)” value is reported as 1.55.
In the case of “TCCGACTCTTGGGTTCTAACCTGTTGCCG (site TCCTACTCTCG)”, the “recombinant barcode read abundance (log10)” value is reported as 0.122.
In the case of “TCCGAGACTTGGGTTCTAACCTGTTGCCA (site TCCGAGACTAG)”, the “recombinant barcode read abundance (log10)” value is reported as 0.598.
With “TCCGAGACTTGGGTTCTAACCTGTTGCCA (site TCCGAGACTCG)” the “recombinant barcode read abundance (log10)” value was 0.208.
In the case of “TCCGAGACTTGGGTTCTAACCTGTTGCCA (site TCCGAGACTGG)”, the “recombinant barcode read abundance (log10)” value is reported as 0.176.
With “TCCGAGACTTGGGTTCTAACCTGTTGCCA (site TCCGAGACTTG)” the “recombinant barcode read abundance (log10)” value was 1.34.
In the case of “TCCGAGACTTGGGTTCTAACCTGTTGCCC (site TCCGAGACTAG)”, the “recombinant barcode read abundance (log10)” value is reported as 0.146.
With “TCCGAGACTTGGGTTCTAACCTGTTGCCC (site TCCGAGACTCG)” the “recombinant barcode read abundance (log10)” value was 0.338.
For “TCCGAGACTTGGGTTCTAACCTGTTGCCC (site TCCGAGACTGG)”, the “recombinant barcode read abundance (log10)” value was 1.08.
For “TCCGAGACTTGGGTTCTAACCTGTTGCCC (site TCCGAGACTTG)”, the “recombinant barcode read abundance (log10)” value was 0.0317.
With “TCCGCGACTTGGGTTCTAACCTGTTGCCT (site TCAGCGACTAG)” the “recombinant barcode read abundance (log10)” value was 0.0444.
With “TCCGCGACTTGGGTTCTAACCTGTTGCCT (site TCCGCGACTAG)” the “recombinant barcode read abundance (log10)” value was 0.159.
For “TCCGCGACTTGGGTTCTAACCTGTTGCCT (site TCGGCGACTAG)”, the “recombinant barcode read abundance (log10)” value was 0.453.
In the case of “TCCGCGACTTGGGTTCTAACCTGTTGCCT (site TCTGCGACTAG)”, the “recombinant barcode read abundance (log10)” value is reported as 0.17.
For “TCCGCTGCTTGGGTTCTAACCTGTTGCCT (site TCCGCTACTAG)”, the “recombinant barcode read abundance (log10)” value was 0.151.
For “TCCGCTGCTTGGGTTCTAACCTGTTGCCT (site TCCGCTCCTAG)”, the “recombinant barcode read abundance (log10)” value was 0.0574.
With “TCCGCTGCTTGGGTTCTAACCTGTTGCCT (site TCCGCTGCTAG)” the “recombinant barcode read abundance (log10)” value was 0.283.
In the case of “TCCGCTGCTTGGGTTCTAACCTGTTGCCT (site TCCGCTTCTAG)”, the “recombinant barcode read abundance (log10)” value is reported as 0.00679.
For “TCCGGTACTTGGGTTCTAACCTGTTGCAT (site TCCAGTACTAT)”, the “recombinant barcode read abundance (log10)” value was 0.369.
In the case of “TCCGGTACTTGGGTTCTAACCTGTTGCAT (site TCCCGTACTAT)”, the “recombinant barcode read abundance (log10)” value is reported as 0.0823.
With “TCCGGTACTTGGGTTCTAACCTGTTGCAT (site TCCGGTACTAT)” the “recombinant barcode read abundance (log10)” value was 0.849.
For “TCCGGTACTTGGGTTCTAACCTGTTGCAT (site TCCTGTACTAT)”, the “recombinant barcode read abundance (log10)” value was 0.114.
With “TCCGTCCCTTGGGTTCTAACCTGTTGCTG (site TCCGTACCTCG)” the “recombinant barcode read abundance (log10)” value was 0.0427.
For “TCCGTCCCTTGGGTTCTAACCTGTTGCTG (site TCCGTCCCTCA)”, the “recombinant barcode read abundance (log10)” value was 1.57.
In the case of “TCCGTGCCTTGGGTTCTAACCTGTTGCCT (site TCCGTGACTAG)”, the “recombinant barcode read abundance (log10)” value is reported as 0.00917.
For “TCCGTGCCTTGGGTTCTAACCTGTTGCCT (site TCCGTGCCTAG)”, the “recombinant barcode read abundance (log10)” value was 0.598.
With “TCCGTGCCTTGGGTTCTAACCTGTTGCCT (site TCCGTGGCTAG)” the “recombinant barcode read abundance (log10)” value was 0.304.
For “TCCGTGCCTTGGGTTCTAACCTGTTGCCT (site TCCGTGTCTAG)”, the “recombinant barcode read abundance (log10)” value was 0.17.
With “TCCGTTACTTGGGTTCTAACCTGTTGCCG (site CAGCAGCCTAA)” the “recombinant barcode read abundance (log10)” value was 0.086.
For “TCCGTTACTTGGGTTCTAACCTGTTGCCG (site TCCGTTACTCG)”, the “recombinant barcode read abundance (log10)” value was 0.336.
In the case of “TCCTCTCCTTGGGTTCTAACCTGTTGCTT (site TCCTCTCCTAA)”, the “recombinant barcode read abundance (log10)” value is reported as 0.118.
With “TCCTCTCCTTGGGTTCTAACCTGTTGCTT (site TGCCCTCCTAA)” the “recombinant barcode read abundance (log10)” value was 0.0451.
For “TCCTGGCCTTGGGTTCTAACCTGTTGCCT (site TCCAGGGCTAG)”, the “recombinant barcode read abundance (log10)” value was 0.209.
For “TCCTGGCCTTGGGTTCTAACCTGTTGCCT (site TCCTGGCCTAG)”, the “recombinant barcode read abundance (log10)” value was 0.117.
With “TCCTGTCCTTGGGTTCTAACCTGTTGCAT (site TCCTGTACTAG)” the “recombinant barcode read abundance (log10)” value was 0.0187.
For “TCCTGTCCTTGGGTTCTAACCTGTTGCAT (site TCCTGTCCTAT)”, the “recombinant barcode read abundance (log10)” value was 0.467.
For “TCCTGTGCTTGGGTTCTAACCTGTTGCCT (site TCCTGTGCTAG)”, the “recombinant barcode read abundance (log10)” value was 0.254.
With “TCCTGTGCTTGGGTTCTAACCTGTTGCCT (site TTCTATGCTAG)” the “recombinant barcode read abundance (log10)” value was 0.00897.
With “TCCTTCTCTTGGGTTCTAACCTGTTGCCT (site GAGGGGACTCT)” the “recombinant barcode read abundance (log10)” value was 0.103.
With “TCCTTCTCTTGGGTTCTAACCTGTTGCCT (site TCCTTCTCTAG)” the “recombinant barcode read abundance (log10)” value was 0.601.
For “TCGAACCCTTGGGTTCTAACCTGTTGCCT (site TCGAAACCTAG)”, the “recombinant barcode read abundance (log10)” value was 0.36.
For “TCGAACCCTTGGGTTCTAACCTGTTGCCT (site TCGAACCCTAG)”, the “recombinant barcode read abundance (log10)” value was 0.639.
For “TCGAACCCTTGGGTTCTAACCTGTTGCCT (site TCGAAGCCTAG)”, the “recombinant barcode read abundance (log10)” value was 0.115.
For “TCGAACCCTTGGGTTCTAACCTGTTGCCT (site TCGAATCCTAG)”, the “recombinant barcode read abundance (log10)” value was 0.151.
With “TCGAACGCTTGGGTTCTAACCTGTTGCTT (site CACGGGACTCT)” the “recombinant barcode read abundance (log10)” value was 0.115.
For “TCGAACGCTTGGGTTCTAACCTGTTGCTT (site TCGAACGCTAA)”, the “recombinant barcode read abundance (log10)” value was 0.135.
With “TCGACCACTTGGGTTCTAACCTGTTGCCT (site TATACCACTAG)” the “recombinant barcode read abundance (log10)” value was 0.0386.
For “TCGACCACTTGGGTTCTAACCTGTTGCCT (site TCGACCACTAG)”, the “recombinant barcode read abundance (log10)” value was 0.115.
In the case of “TCGAGGCCTTGGGTTCTAACCTGTTGCGG (site TAGAGCCCTCC)”, the “recombinant barcode read abundance (log10)” value is reported as 0.724.
In the case of “TCGAGGCCTTGGGTTCTAACCTGTTGCGG (site TCGAGGCCTCC)”, the “recombinant barcode read abundance (log10)” value is reported as 1.34.
With “TCGAGTCCTTGGGTTCTAACCTGTTGCCA (site TCGAGTCCTTG)” the “recombinant barcode read abundance (log10)” value was 0.084.
With “TCGAGTCCTTGGGTTCTAACCTGTTGCCA (site TGGTGTCCTTG)” the “recombinant barcode read abundance (log10)” value was 0.
For “TCGATCACTTGGGTTCTAACCTGTTGCCT (site TCGATCACTAG)”, the “recombinant barcode read abundance (log10)” value was 0.738.
For “TCGATCACTTGGGTTCTAACCTGTTGCCT (site TCGATTACTAG)”, the “recombinant barcode read abundance (log10)” value was 0.0188.
In the case of “TCGATCCCTTGGGTTCTAACCTGTTGCGT (site CTTTGAACTTA)”, the “recombinant barcode read abundance (log10)” value is reported as 0.315.
For “TCGATCCCTTGGGTTCTAACCTGTTGCGT (site TCGATCCCTAC)”, the “recombinant barcode read abundance (log10)” value was 1.95.
For “TCGCACACTTGGGTTCTAACCTGTTGCTG (site TAGCACACTCG)”, the “recombinant barcode read abundance (log10)” value was 0.0637.
In the case of “TCGCACACTTGGGTTCTAACCTGTTGCTG (site TCGCACACTCA)”, the “recombinant barcode read abundance (log10)” value is reported as 0.548.
In the case of “TCGCGGACTTGGGTTCTAACCTGTTGCCT (site TCACGGACTAG)”, the “recombinant barcode read abundance (log10)” value is reported as 0.464.
In the case of “TCGCGGACTTGGGTTCTAACCTGTTGCCT (site TCCCGGACTAG)”, the “recombinant barcode read abundance (log10)” value is reported as 0.243.
For “TCGCGGACTTGGGTTCTAACCTGTTGCCT (site TCGCGGACTAG)”, the “recombinant barcode read abundance (log10)” value was 0.168.
With “TCGCGGACTTGGGTTCTAACCTGTTGCCT (site TCTCGGACTAG)” the “recombinant barcode read abundance (log10)” value was 0.0887.
For “TCGGAGTCTTGGGTTCTAACCTGTTGCAT (site TCGGAGTCTAA)”, the “recombinant barcode read abundance (log10)” value was 0.5.
For “TCGGAGTCTTGGGTTCTAACCTGTTGCAT (site TCGGAGTCTAC)”, the “recombinant barcode read abundance (log10)” value was 1.03.
For “TCGGAGTCTTGGGTTCTAACCTGTTGCAT (site TCGGAGTCTAG)”, the “recombinant barcode read abundance (log10)” value was 1.4.
In the case of “TCGGAGTCTTGGGTTCTAACCTGTTGCAT (site TCGGAGTCTAT)”, the “recombinant barcode read abundance (log10)” value is reported as 2.29.
For “TCGGAGTCTTGGGTTCTAACCTGTTGCGC (site CTATGACCTCA)”, the “recombinant barcode read abundance (log10)” value was 0.0526.
In the case of “TCGGAGTCTTGGGTTCTAACCTGTTGCGC (site TCGGAGTCTGC)”, the “recombinant barcode read abundance (log10)” value is reported as 1.37.
For “TCGGAGTCTTGGGTTCTAACCTGTTGCTG (site TCGGAGTCTCA)”, the “recombinant barcode read abundance (log10)” value was 0.963.
